This assay relates to spores of Bacillus cereus. In kind it is cell-based.

Values joined by “and” are separate entries in the source; they are usually repeats but may differ in a detail not shown here. Equal values may be shown once.

On to `C[C@H](N)C(=O)O` [L-alanine], for which the CFU was 72 and 85. Further, the “induction of spore germination” value (control samples A and B) is given as “did induce germination”.

Values taken from patent US6547971B2 (priority 2000, dated 2003).
